Results on 21 compounds are retold here after US20140081025A1, “HETEROAROMATIC RING DERIVATIVE” (TAISHO PHARMACEUTICAL CO., LTD., priority 2011, published 2014).

The structures appear in SMILES notation.

The target in assay [1] is T1, human orexin 2 receptor (hOX2R) (Homo sapiens, UniProt O43614).
T1 construct: expressed in transfected cells; host or cells: Chinese hamster ovary (CHO) cells
T1 sequence (O43614 1-444): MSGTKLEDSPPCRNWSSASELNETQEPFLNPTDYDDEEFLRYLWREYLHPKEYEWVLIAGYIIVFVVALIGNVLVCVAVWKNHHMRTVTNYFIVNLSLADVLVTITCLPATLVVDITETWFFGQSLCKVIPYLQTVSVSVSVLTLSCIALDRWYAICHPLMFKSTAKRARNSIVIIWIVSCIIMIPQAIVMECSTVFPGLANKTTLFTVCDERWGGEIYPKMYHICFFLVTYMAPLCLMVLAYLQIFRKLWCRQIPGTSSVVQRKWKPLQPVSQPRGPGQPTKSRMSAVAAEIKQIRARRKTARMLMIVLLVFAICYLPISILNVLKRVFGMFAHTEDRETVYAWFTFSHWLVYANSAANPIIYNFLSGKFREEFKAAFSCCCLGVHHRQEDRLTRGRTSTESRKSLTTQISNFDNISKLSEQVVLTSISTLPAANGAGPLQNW
The assay can be described thus: Measurement of orexin antagonist activity (intracellular Ca2+ fluorescence, FDSS) in CHO cells expressing hOX2R. The format is cell-based. To be noted: CHO cells forcibly expressing hOX2R; ligand (two-amino-acid-substituted human orexin-A) 3 nM; Fluo 4-AM; read-out: IC50 value OX2. The procedure: (§1) The antagonist activity of a test compound against the human orexin 1 receptor (hOX1R) or orexin 2 receptor (hOX2R) was measured by the method described in the document (Toshikatsu Okumura et al., Biochemical and Biophysical Research Communications, 280, 976-981, 2001) with appropriate modification. Chinese hamster ovary (CHO) cells forcibly expressing hOX1R or hOX2R were seeded into each well of a 96-well Black clear bottom plate (Nunc A/S) in the amount of 20000 cells per well and were cultured in a Ham's F-12 medium (Invitrogen, Inc.) containing 0.1 mM MEM non-essential amino acids (Invitrogen, Inc.), 0.5 mg/mL G418 (Invitrogen, Inc.), and 10% fetal calf serum (Invitrogen, Inc.) at 37° C. in 5% CO2 for 16 hours. The medium was removed, and then added to each well was 100 μL of an assay buffer (pH 7.4) containing 0.5 μM Fluo 4-AM ester (Dojindo Laboratories), wherein the buffer was composed of 25 mM HEPES (Dojindo Laboratories), a Hanks' balanced salt solution (Invitrogen, Inc.), 0.1% bovine serum albumin (Sigma-Aldrich Co., LLC.), 2.5 mM probenecid (Sigma-Aldrich Co., LLC.), and 200 μg/mL Amaranth (Sigma-Aldrich Co., LLC.), followed by incubation at 37° C. in 5% CO2 for 60 min. The assay buffer containing Fluo 4-AM ester was removed, and then 150 μL of an assay buffer solution containing 10 mM of the test compound dissolved in dimethyl sulfoxide was added to each well, followed by incubation for 30 min.
(§2) A peptide (Pyr-[…]NH2: Peptide Institute, Inc.), which is a ligand having substitution of two amino acids in human orexin-A, was diluted with an assay buffer to a final concentration of 300 pM for hOX1R and to a final concentration of 3 nM for hOX2R. The reaction was started by adding 50 μL of this ligand solution to each well. The reaction was monitored by measuring the fluorescence of each well at each 1 second for 3 min with a Functional Drug Screening System (FDSS manufactured by Hamamatsu Photonics K.K.), and the antagonist activity was determined based on the maximum fluorescence value as an index of the intracellular Ca^2+ concentration. The antagonist activity of a test compound was calculated by assuming that the fluorescence value of the well containing only a dilution buffer was 100% and that the fluorescence value of the well containing a buffer not containing the ligand or any test compound was 0%. The 50% inhibitory concentration (IC50 value) of a test compound was determined from fluorescence values at various concentrations of the test compound.

Assay [2] has as its target T2, human orexin 1 receptor (hOX1R) (Homo sapiens, UniProt O43613).
T2 construct: expressed in transfected cells; host or cells: Chinese hamster ovary (CHO) cells
T2 sequence (O43613 1-425): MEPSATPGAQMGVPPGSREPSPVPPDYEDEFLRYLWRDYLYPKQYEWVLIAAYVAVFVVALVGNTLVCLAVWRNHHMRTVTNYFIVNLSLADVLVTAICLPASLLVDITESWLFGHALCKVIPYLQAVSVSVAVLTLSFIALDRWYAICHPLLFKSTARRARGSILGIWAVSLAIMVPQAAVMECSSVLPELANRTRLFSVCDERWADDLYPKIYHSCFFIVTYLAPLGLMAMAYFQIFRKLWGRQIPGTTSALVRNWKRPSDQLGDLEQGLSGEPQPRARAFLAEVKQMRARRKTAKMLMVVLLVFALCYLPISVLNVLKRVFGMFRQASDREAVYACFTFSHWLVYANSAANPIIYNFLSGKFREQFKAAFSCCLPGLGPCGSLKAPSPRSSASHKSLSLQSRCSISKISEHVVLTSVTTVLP
Briefly: Measurement of orexin antagonist activity (intracellular Ca2+ fluorescence, FDSS) in CHO cells expressing hOX1R. In kind it is cell-based. The following applies: CHO cells forcibly expressing hOX1R; ligand (two-amino-acid-substituted human orexin-A) 300 pM; Fluo 4-AM; read-out: IC50 value OX1. The procedure:
as §1, §2

As usually defined, the IC50 is the concentration that gives 50% inhibition.

With `Cc1ccc(-n2nccn2)c(C(=O)N(C)CCc2cc(-c3ccc(F)cn3)on2)c1` [Example 9, N-{2-[5-(5-Fluoropyridin-2-yl)-1,2-oxazol-3-yl]ethyl}-N,5-dimethyl-2-(2H-1,2,3-triazol-2-yl)benzamide], the 50% inhibitory concentration (IC50) was 0.0774 µM in assay [1] and 0.0167 µM in assay [2].

As for `CCN(CCc1noc(-c2ccc(F)cn2)n1)C(=O)c1cc(F)ccc1-c1ncccn1` [Example 46, N-ethyl-5-fluoro-N-{2-[5-(5-fluoropyridin-2-yl)-1,2,4-oxadiazol-3-yl]ethyl}-2-(pyrimidin-2-yl) benzamide], the IC50 came to 1.23 µM in assay [1] and 0.974 µM in assay [2].

On to `CCN(CCc1ccn(-c2ccc(F)cn2)n1)C(=O)c1c(F)cccc1-n1nccn1` [Example 18, N-ethyl-2-fluoro-N-{2-[1-(5-fluoropyridin-2-yl)-1H-pyrazol-3-yl]ethyl}-2-(2H-1,2,3-triazol-2-yl) benzamide], for which the figures for the half-maximal inhibitory concentration (IC50) in assay [1] and in assay [2] were 0.0063 µM and 0.0016 µM, respectively.

For the compound `CCN(CCc1noc(-c2ccc(F)c(F)c2)n1)C(=O)c1ccccc1-n1nccn1` [Example 42, N-ethyl-N-{2-[5-(3,4-difluorophenyl)-1,2,4-oxadiazol-3-yl]ethyl}-2-(2H-1,2,3-triazol-2-yl) benzamide], the concentration for half-maximal inhibition (IC50) amounted to 0.0108 µM in assay [1] and 0.0097 µM in assay [2].

On to `CCN(CCc1cnn(-c2ccc(F)cn2)c1)C(=O)c1ccccc1-n1nccn1` [Example 3, N-Ethyl-N-{2-[1-(5-fluoropyridin-2-yl)-1H-pyrazol-4-yl]ethyl}-2-(2H-1,2,3-triazol-2-yl)benzamide], for which the IC50 in assay [1] amounted to 0.0606 µM; in assay [2], 0.0042 µM.

With `CCN(CCc1ccn(-c2ccc(F)cn2)n1)C(=O)c1cc(F)ccc1-n1nccn1` [Example 7, N-Ethyl-N-{2-[1-(5-fluoropyridin-2-yl)-1H-pyrazol-3-yl]ethyl}-5-fluoro-2-(2H-1,2,3-triazol-2-yl)benzamide], the IC50 in assay [1] is 0.0249 µM; in assay [2], 0.011 µM.

For the compound `CCN(CCc1noc(-c2ccc(F)cn2)n1)C(=O)c1cc(C)ccc1-c1ncccn1` [Example 45, N-ethyl-N-{2-[5-(5-fluoropyridin-2-yl)-1,2,4-oxadiazol-3-yl]ethyl}-5-methyl-2-(pyrimidin-2-yl)benzamide], the IC50 was 0.159 µM in assay [1] and 0.163 µM in assay [2].

Consider `CCN(CCc1ccn(-c2ccc(F)cn2)n1)C(=O)c1cc(C)ccc1-c1ncccn1` [Example 6, N-Ethyl-N-{2-[1-(5-fluoropyridin-2-yl)-1H-pyrazol-3-yl]ethyl}-5-methyl-2-(pyrimidin-2-yl)benzamide], for which the IC50 in assay [1] was found to be 0.0137 µM; in assay [2], 0.0071 µM.

Take `CCN(CCc1cn(-c2ccc(F)cn2)cn1)C(=O)c1cc(C)ccc1-n1nccn1` [Example 13, N-Ethyl-N-{2-[1-(5-fluoropyridin-2-yl)-1H-imidazol-4-yl]ethyl}-5-methyl-2-(2H-1,2,3-triazol-2-yl)benzamide]: the IC50 in assay [1] is 0.0034 µM; in assay [2], 0.0089 µM.

Consider `CCN(CCc1ccn(-c2cccc(C(F)(F)F)n2)n1)C(=O)c1ccccc1-n1nccn1` [Example 24, N-ethyl-2-(2H-1,2,3-triazol-2-yl)-N-(2-{1-[6-(trifluoromethyl)pyridin-2-yl]-1H-pyrazol-3-yl}ethyl)benzamide], for which the half-inhibitory concentration (IC50) in assay [1] was determined as 0.0248 µM; in assay [2] it was 0.0178 µM.

As to `Cc1ccc(-n2nccn2)c(C(=O)N(C)CCc2cnn(-c3ccc(F)cn3)c2)c1` [Example 2, N-{2-[1-(5-Fluoropyridin-2-yl)-1H-pyrazol-4-yl]ethyl}-N,5-dimethyl-2-(2H-1,2,3-triazol-2-yl)benzamide], the 50% inhibitory concentration (IC50) in assay [1] was determined as 0.0085 µM; in assay [2] it was 0.0007 µM.

As to `CCN(CCc1ccn(-c2ccc(F)cn2)n1)C(=O)c1c(F)cccc1-c1ncccn1` [Example 21, N-ethyl-2-fluoro-N-{2-[1-(5-fluoropyridin-2-yl)-1H-pyrazol-3-yl]ethyl}-6-(pyrimidin-2-yl) benzamide], the concentration for half-maximal inhibition (IC50) in assay [1] was found to be 0.0508 µM; in assay [2], 0.0116 µM.

On to `CCN(CCc1noc(-c2ccc(F)cc2)n1)C(=O)c1cc(F)ccc1-c1ncccn1` [Example 40, N-ethyl-5-fluoro-N-{2-[5-(4-fluorophenyl)-1,2,4-oxadiazol-3-yl]ethyl}-2-(pyrimidin-2-yl) benzamide], for which the IC50 in assay [1] was found to be 0.078 µM; in assay [2], 0.0017 µM.

In the case of `Cc1ccc(-n2nccn2)c(C(=O)N(C)CCc2noc(-c3ccc(F)cn3)n2)c1` [Example 34, N-{2-[5-(5-fluoropyridin-2-yl)-1,2,4-oxadiazol-3-yl]ethyl}-N,5-dimethyl-2-(2H-1,2,3-triazol-2-yl)benzamide], the results for the IC50 in assay [1] and in assay [2] were 0.119 µM and 0.0834 µM, respectively.

Regarding `CCN(CCc1noc(-c2ccc(F)c(F)c2)n1)C(=O)c1cc(C)ccc1-n1nccn1` [Example 37, N-ethyl-N-{2-[5-(3,4-difluorophenyl)-1,2,4-oxadiazol-3-yl]ethyl}-5-methyl-2-(2H-1,2,3-triazol-2-yl)benzamide], the IC50 worked out at 0.002 µM in assay [1] and 0.0011 µM in assay [2].

With `CCN(CCc1ccn(-c2ccc(F)cn2)n1)C(=O)c1cc(F)ccc1-c1ncccn1` [Example 20, N-ethyl-5-fluoro-N-{2-[1-(5-fluoropyridin-2-yl)-1H-pyrazol-3-yl]ethyl}-2-(pyrimidin-2-yl) benzamide], the values for the IC50 in assay [1] and in assay [2] were 0.0132 µM and 0.0017 µM, respectively.

Regarding `CCN(CCc1noc(-c2ccc(F)c(F)c2)n1)C(=O)c1cc(F)ccc1-c1ncccn1` [Example 43, N-{2-[5-(3,4-difluorophenyl)-1,2,4-oxadiazol-3-yl]ethyl}-N-ethyl-5-fluoro-2-(pyrimidin-2-yl) benzamide], the IC50 in assay [1] came out at 0.0698 µM; in assay [2], 0.061 µM.

`CCN(CCc1cc(-c2ccc(F)cn2)on1)C(=O)c1cc(C)ccc1-n1nccn1` [Example 10, N-Ethyl-N-{2-[5-(5-fluoropyridin-2-yl)-1,2-oxazol-3-yl]ethyl}-5-methyl-2-(2H-1,2,3-triazol-2-yl)benzamide]: the figures for the IC50 in assay [1] and in assay [2] were 0.0213 µM and 0.0018 µM, respectively.

On to `CN(CCc1noc(-c2ccc(F)cn2)n1)C(=O)c1ccccc1-n1nccn1` [Example 33, N-{2-[5-(5-fluoropyridin-2-yl)-1,2,4-oxadiazol-3-yl]ethyl}-N-methyl-2-(2H-1,2,3-triazol-2-yl) benzamide], for which the IC50 in assay [1] is 2.53 µM; in assay [2] it was 1.19 µM.

In the case of `CCN(CCc1ccn(-c2ccc(F)cc2)n1)C(=O)c1ccccc1-c1ncccn1` [Example 30, N-ethyl-N-{2-[1-(4-fluorophenyl)-1H-pyrazol-3-yl]ethyl}-2-(pyrimidine-2-yl)benzamide], the figures for the IC50 in assay [1] and in assay [2] were 0.0132 µM and 0.0019 µM, respectively.

Consider `CCN(CCc1ccn(-c2ccc(F)cn2)n1)C(=O)c1ccccc1-c1ncccn1` [Example 19, N-ethyl-N-{2-[1-(5-fluoropyridin-2-yl)-1H-pyrazol-3-yl]ethyl}-2-(pyrimidin-2-yl) benzamide], for which the IC50 in assay [1] turned out to be 0.0074 µM; in assay [2], 0.0009 µM.
